Measurements: PMC5218480 (PLoS ONE, 2017)

Test system: MV-4-11 cells
Experiment: Gene expression microarray analysis (Affymetrix PrimeView) and GSEA
Format: cell-based, human
Parameters: RFU PODN (11730768_x_at) / Fold change /veh PODN (11730768_x_at) / RFU LINC00158 (11744669_a_at) / Fold change /veh LINC00158 (11744669_a_at) / RFU DUSP10 (11751237_a_at) / Fold change /veh DUSP10 (11751237_a_at) / RFU ID3 (11757404_x_at) / Fold change /veh ID3 (11757404_x_at) / RFU PLEKHG5 (11737974_s_at) / Fold change /veh PLEKHG5 (11737974_s_at) / RFU LRRC4B (11730491_at) / Fold change /veh LRRC4B (11730491_at) / RFU GIMAP4 (11747438_a_at) / Fold change /veh GIMAP4 (11747438_a_at) / RFU KRT8 (11758183_x_at) / Fold change /veh KRT8 (11758183_x_at) / RFU CNN1 (11734310_a_at) / Fold change /veh CNN1 (11734310_a_at) / RFU VPS37D (11726825_at) / Fold change /veh VPS37D (11726825_at) / RFU C10orf10 (11716522_x_at) / Fold change /veh C10orf10 (11716522_x_at) / RFU KIR2DL2 /// KIR2DL4 /// KIR2DL5A /// KIR2DL5B /// KIR2DS1 /// KIR2DS2 /// KIR2DS3 /// KIR2DS4 /// KIR3DL3 /// KIR3DL3 /// KIR3DS1 (11738374_at) / Fold change /veh KIR2DL2 /// KIR2DL4 /// KIR2DL5A /// KIR2DL5B /// KIR2DS1 /// KIR2DS2 /// KIR2DS3 /// KIR2DS4 /// KIR3DL3 /// KIR3DL3 /// KIR3DS1 (11738374_at) / RFU C1QL1 (11718748_at) / Fold change /veh C1QL1 (11718748_at) / RFU TMPRSS4 (11747572_a_at) / Fold change /veh TMPRSS4 (11747572_a_at) / RFU HAMP (11756126_x_at) / Fold change /veh HAMP (11756126_x_at) / RFU RNFT2 (11725882_a_at) / Fold change /veh RNFT2 (11725882_a_at) / RFU NR4A2 (11747474_a_at) / Fold change /veh NR4A2 (11747474_a_at) / RFU ABCC12 (11746883_a_at) / Fold change /veh ABCC12 (11746883_a_at) / RFU TMEM136 (11760407_x_at) / Fold change /veh TMEM136 (11760407_x_at) / RFU CLDN22 /// WWC2 (11732394_at) / Fold change /veh CLDN22 /// WWC2 (11732394_at) / RFU HLA-DPB1 (11760878_x_at) / Fold change /veh HLA-DPB1 (11760878_x_at) / RFU SPINT1 (11716480_a_at) / Fold change /veh SPINT1 (11716480_a_at) / RFU GAP43 (11754022_s_at) / Fold change /veh GAP43 (11754022_s_at) / RFU A4GNT (11735810_at) / Fold change /veh A4GNT (11735810_at) / RFU PRB3 (11715151_x_at) / Fold change /veh PRB3 (11715151_x_at) / RFU TUBB4B (11761932_at) / Fold change /veh TUBB4B (11761932_at) / RFU CAPN14 (11732068_a_at) / Fold change /veh CAPN14 (11732068_a_at) / RFU TMCC2 (11721928_a_at) / Fold change /veh TMCC2 (11721928_a_at) / RFU IRGQ (11745062_a_at) / Fold change /veh IRGQ (11745062_a_at) / RFU FAM174B (11720279_a_at) / Fold change /veh FAM174B (11720279_a_at) / RFU TMPRSS4 (11748680_a_at) / Fold change /veh TMPRSS4 (11748680_a_at) / RFU FAM212B (11763350_a_at) / Fold change /veh FAM212B (11763350_a_at) / RFU PLEKHG5 (11743358_a_at) / Fold change /veh PLEKHG5 (11743358_a_at) / RFU ZSCAN30 (11745921_a_at) / Fold change /veh ZSCAN30 (11745921_a_at) / RFU CMKLR1 (11741424_a_at) / Fold change /veh CMKLR1 (11741424_a_at) / RFU LOC101060620 /// MAPK8IP1 (11723275_at) / Fold change /veh LOC101060620 /// MAPK8IP1 (11723275_at) / RFU SPTSSB (11747773_x_at) / Fold change /veh SPTSSB (11747773_x_at) / RFU PRSS12 (11739890_at) / Fold change /veh PRSS12 (11739890_at) / RFU BIN1 (11741810_x_at) / Fold change /veh BIN1 (11741810_x_at) / RFU WNT11 (11732464_a_at) / Fold change /veh WNT11 (11732464_a_at) / RFU C10orf10 (11716521_a_at) / Fold change /veh C10orf10 (11716521_a_at) / RFU C5orf56 (11738089_at) / Fold change /veh C5orf56 (11738089_at) / RFU CYB561 (11721691_x_at) / Fold change /veh CYB561 (11721691_x_at) / RFU ANKRD19P (11752326_a_at) / Fold change /veh ANKRD19P (11752326_a_at) / RFU OR2T12 /// OR2T33 /// OR2T8 (11738714_s_at) / Fold change /veh OR2T12 /// OR2T33 /// OR2T8 (11738714_s_at) / RFU VCAN (11748164_a_at) / Fold change /veh VCAN (11748164_a_at) / RFU JSRP1 (11732532_at) / Fold change /veh JSRP1 (11732532_at) / RFU KRTAP10-11 (11738290_x_at) / Fold change /veh KRTAP10-11 (11738290_x_at) / RFU MYO3A (11730013_a_at) / Fold change /veh MYO3A (11730013_a_at) / RFU EBF3 (11725865_a_at) / Fold change /veh EBF3 (11725865_a_at) / RFU CAMK2N1 (11719241_x_at) / Fold change /veh CAMK2N1 (11719241_x_at) / RFU C5orf56 (11738088_a_at) / Fold change /veh C5orf56 (11738088_a_at) / RFU OLFML3 (11715873_a_at) / Fold change /veh OLFML3 (11715873_a_at) / RFU LOC100653217 /// NTM (11731650_a_at) / Fold change /veh LOC100653217 /// NTM (11731650_a_at) / RFU MAPK11 (11762145_a_at) / Fold change /veh MAPK11 (11762145_a_at) / RFU FIZ1 (11724087_x_at) / Fold change /veh FIZ1 (11724087_x_at) / RFU OASL (11726364_x_at) / Fold change /veh OASL (11726364_x_at) / RFU SOX15 (11748057_x_at) / Fold change /veh SOX15 (11748057_x_at) / RFU CD79A (11719716_a_at) / Fold change /veh CD79A (11719716_a_at) / RFU HIST1H1D (11736915_at) / Fold change /veh HIST1H1D (11736915_at) / RFU CASKIN2 (11723855_a_at) / Fold change /veh CASKIN2 (11723855_a_at) / RFU LOC730098 (11760151_x_at) / Fold change /veh LOC730098 (11760151_x_at) / RFU OR4N2 (11742367_at) / Fold change /veh OR4N2 (11742367_at) / RFU PRRT2 (11749266_a_at) / Fold change /veh PRRT2 (11749266_a_at) / RFU SNX32 (11753110_a_at) / Fold change /veh SNX32 (11753110_a_at) / RFU CDHR5 (11726645_a_at) / Fold change /veh CDHR5 (11726645_a_at) / RFU RCAN1 (11760418_a_at) / Fold change /veh RCAN1 (11760418_a_at) / RFU FAM167A (11723789_a_at) / Fold change /veh FAM167A (11723789_a_at) / RFU FAM26E (11764081_at) / Fold change /veh FAM26E (11764081_at) / RFU ISYNA1 (11749810_s_at) / Fold change /veh ISYNA1 (11749810_s_at) / RFU ACY1 (11761880_at) / Fold change /veh ACY1 (11761880_at) / RFU 11764098_at / Fold change /veh 11764098_at / RFU SAMD14 (11745864_x_at) / Fold change /veh SAMD14 (11745864_x_at) / RFU NPB (11741838_a_at) / Fold change /veh NPB (11741838_a_at) / RFU TMPRSS6 (11731388_a_at) / Fold change /veh TMPRSS6 (11731388_a_at) / RFU KRTAP10-2 (11738614_at) / Fold change /veh KRTAP10-2 (11738614_at) / RFU ARHGAP8 /// PRR5-ARHGAP8 (11727945_x_at) / Fold change /veh ARHGAP8 /// PRR5-ARHGAP8 (11727945_x_at) / RFU KRTAP5-7 /// NADSYN1 (11734609_at) / Fold change /veh KRTAP5-7 /// NADSYN1 (11734609_at) / RFU RASL12 (11751679_a_at) / Fold change /veh RASL12 (11751679_a_at) / RFU CDKN2B (11736163_a_at) / Fold change /veh CDKN2B (11736163_a_at) / RFU PRF1 (11729649_at) / Fold change /veh PRF1 (11729649_at) / RFU, ZNF638 /// ZNF638-IT1 / Fold change vs veh, ZNF638 /// ZNF638-IT1 / RFU, PANK3 / Fold change vs veh, PANK3 / RFU, SH3YL1 / Fold change vs veh, SH3YL1 / RFU, ZEB2 / Fold change vs veh, ZEB2 / RFU, NRIP1 / Fold change vs veh, NRIP1 / RFU, PTTG1IP / Fold change vs veh, PTTG1IP / RFU, CAPN2 / Fold change vs veh, CAPN2 / RFU, MED14 / Fold change vs veh, MED14 / RFU, SNORA58 / Fold change vs veh, SNORA58 / RFU, C1orf63 / Fold change vs veh, C1orf63 / RFU, LRRFIP1 / Fold change vs veh, LRRFIP1 / RFU, NDUFAF7 / Fold change vs veh, NDUFAF7 / RFU, SLC12A2 / Fold change vs veh, SLC12A2 / RFU, IBTK / Fold change vs veh, IBTK / RFU, ESF1 / Fold change vs veh, ESF1 / Fold change vs veh, TMEM50B / RFU, TAOK1 / Fold change vs veh, TAOK1 / RFU, ACBD3 / Fold change vs veh, ACBD3 / RFU, TMA16 / Fold change vs veh, TMA16 / RFU, RWDD3 / Fold change vs veh, RWDD3 / RFU, BCAT1 / Fold change vs veh, BCAT1 / RFU, EDEM3 / Fold change vs veh, EDEM3 / RFU, TMEM33 / Fold change vs veh, TMEM33 / RFU, WDR75 / Fold change vs veh, WDR75 / RFU, AHCTF1 / Fold change vs veh, AHCTF1 / RFU, TFRC / Fold change vs veh, TFRC / RFU, ZDHHC17 / Fold change vs veh, ZDHHC17 / RFU, NOM1 / Fold change vs veh, NOM1 / RFU, ARL8B / Fold change vs veh, ARL8B / RFU, ZBTB11 / Fold change vs veh, ZBTB11 / RFU, TAMM41 / Fold change vs veh, TAMM41 / RFU, KIAA1704 /// LOC100996395 / Fold change vs veh, KIAA1704 /// LOC100996395 / RFU, ING1 / Fold change vs veh, ING1 / RFU, TRMT61B / Fold change vs veh, TRMT61B / RFU, FUBP3 / Fold change vs veh, FUBP3 / RFU, TP53 / Fold change vs veh, TP53 / RFU, TNKS2 / Fold change vs veh, TNKS2 / RFU, ZFP14 / Fold change vs veh, ZFP14 / RFU, ACTR2 / Fold change vs veh, ACTR2 / RFU, PPP3R1 / Fold change vs veh, PPP3R1 / RFU, PIK3R1 / Fold change vs veh, PIK3R1 / RFU, HNRNPA1 / Fold change vs veh, HNRNPA1 / RFU, RNF170 / Fold change vs veh, RNF170 / RFU, ZNF28 / Fold change vs veh, ZNF28 / RFU, RNGTT / Fold change vs veh, RNGTT / RFU, OGT / Fold change vs veh, OGT / RFU, BRD1 / Fold change vs veh, BRD1 / RFU, MARS / Fold change vs veh, MARS / RFU, ZNF655 / Fold change vs veh, ZNF655 / RFU, FAHD1 / Fold change vs veh, FAHD1 / RFU, BDP1 / Fold change vs veh, BDP1 / RFU, LRRCC1 / Fold change vs veh, LRRCC1 / RFU, ARID1A / Fold change vs veh, ARID1A / RFU, ZNF146 / Fold change vs veh, ZNF146 / RFU, ZNF330 / Fold change vs veh, ZNF330 / RFU, GPN3 / Fold change vs veh, GPN3 / RFU, C9orf123 / Fold change vs veh, C9orf123 / RFU, N4BP2L2 / Fold change vs veh, N4BP2L2 / RFU, ARFIP1 / Fold change vs veh, ARFIP1 / RFU, FAM179B / Fold change vs veh, FAM179B / RFU, BCL10 / Fold change vs veh, BCL10 / RFU, UHRF1BP1L / Fold change vs veh, UHRF1BP1L / RFU, BET1 / Fold change vs veh, BET1 / RFU, CNOT2 / Fold change vs veh, CNOT2 / RFU, ZNF268 / Fold change vs veh, ZNF268 / Fold change vs veh, ZNF507 / RFU, DGCR2 / Fold change vs veh, DGCR2 / RFU, WDSUB1 / Fold change vs veh, WDSUB1 / Fold change vs veh, HSP90B1 /// MIR3652 / RFU, ADSS / Fold change vs veh, ADSS / RFU, GK / Fold change vs veh, GK / RFU, ZNF148 / Fold change vs veh, ZNF148 / RFU, TAF9 / Fold change vs veh, TAF9 / RFU, SLC1A5 / Fold change vs veh, SLC1A5 / RFU, SLMO2 / Fold change vs veh, SLMO2 / RFU, ABCC4 / Fold change vs veh, ABCC4 / RFU, LOC101060439 /// RAP1B / Fold change vs veh, LOC101060439 /// RAP1B / RFU, RFX7 / Fold change vs veh, RFX7 / RFU, GTPBP10 / Fold change vs veh, GTPBP10 / RFU, CNEP1R1 / Fold change vs veh, CNEP1R1 / RFU, BIVM-ERCC5 /// ERCC5 / Fold change vs veh, BIVM-ERCC5 /// ERCC5 / RFU, ILF3 / Fold change vs veh, ILF3 / RFU 11762660_at / Fold change /veh 11762660_at / RFU VCAN (11757783_s_at) / Fold change /veh VCAN (11757783_s_at) / RFU DDX43 (11728927_at) / Fold change /veh DDX43 (11728927_at) / RFU KRT8 (11758188_x_at) / Fold change /veh KRT8 (11758188_x_at) / RFU NKD1 (11759106_at) / Fold change /veh NKD1 (11759106_at) / RFU SRD5A1 (11742802_a_at) / Fold change /veh SRD5A1 (11742802_a_at) / RFU TPSAB1 /// TPSB2 (11721975_s_at) / Fold change /veh TPSAB1 /// TPSB2 (11721975_s_at) / RFU GSTM3 (11746129_a_at) / Fold change /veh GSTM3 (11746129_a_at) / RFU IL23R (11737362_x_at) / Fold change /veh IL23R (11737362_x_at) / RFU TMEM51 (11727254_a_at) / Fold change /veh TMEM51 (11727254_a_at) / RFU PIWIL2 (11732686_x_at) / Fold change /veh PIWIL2 (11732686_x_at) / RFU ORM1 (11744905_x_at) / Fold change /veh ORM1 (11744905_x_at) / RFU CCDC152 (11743942_at) / Fold change /veh CCDC152 (11743942_at) / RFU ECM1 (11717891_a_at) / Fold change /veh ECM1 (11717891_a_at) / RFU IL23R (11748794_a_at) / Fold change /veh IL23R (11748794_a_at) / RFU TNFAIP8L3 (11732012_x_at) / Fold change /veh TNFAIP8L3 (11732012_x_at) / RFU MBOAT4 (11741988_at) / Fold change /veh MBOAT4 (11741988_at) / RFU 11764193_at / Fold change /veh 11764193_at / RFU TMEM53 (11763286_at) / Fold change /veh TMEM53 (11763286_at) / RFU MAGEB2 (11727129_at) / Fold change /veh MAGEB2 (11727129_at) / RFU TMEM200A (11744735_a_at) / Fold change /veh TMEM200A (11744735_a_at) / RFU CCDC152 (11751479_a_at) / Fold change /veh CCDC152 (11751479_a_at) / RFU FAM211A (11726209_a_at) / Fold change /veh FAM211A (11726209_a_at) / RFU RGS16 (11746705_a_at) / Fold change /veh RGS16 (11746705_a_at) / RFU VCAN (11755009_s_at) / Fold change /veh VCAN (11755009_s_at) / RFU RHOB (11743442_s_at) / Fold change /veh RHOB (11743442_s_at) / RFU RGS16 (11720943_a_at) / Fold change /veh RGS16 (11720943_a_at) / RFU RGS16 (11720944_at) / Fold change /veh RGS16 (11720944_at) / RFU, VPS4B / Fold change vs veh, VPS4B / RFU, CREB1 / Fold change vs veh, CREB1 / RFU, DNAJC13 / Fold change vs veh, DNAJC13 / RFU, GNAQ / Fold change vs veh, GNAQ / RFU, CDK5R1 / Fold change vs veh, CDK5R1 / RFU, ZRANB3 / Fold change vs veh, ZRANB3 / RFU, CUL4A / Fold change vs veh, CUL4A / RFU, CCNY / Fold change vs veh, CCNY / RFU, UFL1 / Fold change vs veh, UFL1 / RFU, COG3 / Fold change vs veh, COG3 / RFU, DIAPH2 / Fold change vs veh, DIAPH2 / RFU, SKA2 / Fold change vs veh, SKA2 / RFU, AFF3 / Fold change vs veh, AFF3 / RFU, LMF1 / Fold change vs veh, LMF1 / RFU, IPO11 / Fold change vs veh, IPO11 / RFU, DFFB / Fold change vs veh, DFFB / RFU, FOXP1 / Fold change vs veh, FOXP1 / RFU, CARD8 / Fold change vs veh, CARD8 / RFU, STRN3 / Fold change vs veh, STRN3 / RFU, ADK / Fold change vs veh, ADK / RFU, RASSF2 / Fold change vs veh, RASSF2 / RFU, WIPF1 / Fold change vs veh, WIPF1 / RFU, LARP1B / Fold change vs veh, LARP1B / RFU, RASA1 / Fold change vs veh, RASA1 / RFU, RB1 / Fold change vs veh, RB1 / RFU, PPFIA1 / Fold change vs veh, PPFIA1 / RFU, MAT2A / Fold change vs veh, MAT2A / RFU, CCT5 / Fold change vs veh, CCT5 / RFU, WDR92 / Fold change vs veh, WDR92 / RFU, CUX1 / Fold change vs veh, CUX1 / RFU, TTC7A / Fold change vs veh, TTC7A / RFU, TMEM135 / Fold change vs veh, TMEM135 / RFU, DEPTOR / Fold change vs veh, DEPTOR / RFU, CPM / Fold change vs veh, CPM / RFU, DNAJB6 / Fold change vs veh, DNAJB6 / RFU, CACNA2D3 / Fold change vs veh, CACNA2D3 / RFU, DTX4 / Fold change vs veh, DTX4 / RFU, TFCP2 / Fold change vs veh, TFCP2 / RFU, GMCL1 /// GMCL1P1 / Fold change vs veh, GMCL1 /// GMCL1P1 / RFU, AEBP2 / Fold change vs veh, AEBP2 / RFU, SNHG1 /// SNORD22 /// SNORD25 /// SNORD26 /// SNORD27 /// SNORD28 /// SNORD29 /// SNORD31 / Fold change vs veh, SNHG1 /// SNORD22 /// SNORD25 /// SNORD26 /// SNORD27 /// SNORD28 /// SNORD29 /// SNORD31 / Fold change (Aza/veh), C12orf56 (ProbeSet 11735607_a_at) / Fold change (ACY-1035/veh), C12orf56 (ProbeSet 11735607_a_at) / Fold change (Aza/veh), FGFR1OP (ProbeSet 11751329_s_at) / Fold change (ACY-1035/veh), FGFR1OP (ProbeSet 11751329_s_at) / Fold change (Aza/veh), VPS36 (ProbeSet 11739960_a_at) / Fold change (ACY-1035/veh), VPS36 (ProbeSet 11739960_a_at) / RFU SYPL1 (11715823_x_at) / Fold change /veh SYPL1 (11715823_x_at) / RFU IGFBP7 (11715501_s_at) / Fold change /veh IGFBP7 (11715501_s_at) / RFU REEP3 (11722064_at) / Fold change /veh REEP3 (11722064_at) / RFU IGLL1 (11728026_x_at) / Fold change /veh IGLL1 (11728026_x_at): dose or concentration left out as unconfirmed
Settings: MV-4-11 cells, 48 hours

For Nc1ccc(-c2cccs2)cc1NC(=O)c1ccc2c(c1)cc(C1CC1)n2CCN1CCOCC1 [ACY-1035], which “Fold change /veh MBOAT4 (11741988_at)” value is on record?
The value was 1.14.
